Laboratory results published in patent US10538802B2, “Polypeptide substrate for the detection of von Williebrand factor cleaving protease ADAMTS13” (IMMUCOR GTI DIAGNOSTICS, INC., priority 2011, dated 2020).
No end group written: not given here.

Key:
[1] = Solubility of the SEQ ID NO: 7 polypeptide substrate (working solution centrifuged, pellet observed); assay type: physicochemical
Description: 250 .micro.L of working solution is prepared as above. The solution is vortexed vigorously and appears to be in solution. The solution is centrifuged at ˜12,000 g for about 2 minutes. After centrifugation, a very small pink pellet is noted at the bottom of the tube. […] Another tube is prepared as above substituting water for the substrate buffer. This tube is also centrifuged. Once again a pink pellet is observed in the bottom of the tube. The pellet observed in the water solution is noticeably larger than the pellet observed in the substrate buffer solution.

[2] = biological target: T1, ADAMTS13 (Homo sapiens, UniProt Q76LX8); experiment: ADAMTS13 activity assay with fluorogenic (FRET) polypeptide substrate and diluted plasma samples; assay type: biochemical; details: for Assigned/Expected % Normal ADAMTS13 Activity Values Based on FRETS-VWF73 Substrate: incubation 30 Minutes
T1 construct: tissue Gen-Probe GTI Diagnostics (ATS-13 kit calibrators, controls and proficiency samples); George King Biomedical Inc. (FACT, A-FACT, B-FACT plasmas) ATS-13; host or cells: plasma
T1 sequence (Q76LX8 75-1427): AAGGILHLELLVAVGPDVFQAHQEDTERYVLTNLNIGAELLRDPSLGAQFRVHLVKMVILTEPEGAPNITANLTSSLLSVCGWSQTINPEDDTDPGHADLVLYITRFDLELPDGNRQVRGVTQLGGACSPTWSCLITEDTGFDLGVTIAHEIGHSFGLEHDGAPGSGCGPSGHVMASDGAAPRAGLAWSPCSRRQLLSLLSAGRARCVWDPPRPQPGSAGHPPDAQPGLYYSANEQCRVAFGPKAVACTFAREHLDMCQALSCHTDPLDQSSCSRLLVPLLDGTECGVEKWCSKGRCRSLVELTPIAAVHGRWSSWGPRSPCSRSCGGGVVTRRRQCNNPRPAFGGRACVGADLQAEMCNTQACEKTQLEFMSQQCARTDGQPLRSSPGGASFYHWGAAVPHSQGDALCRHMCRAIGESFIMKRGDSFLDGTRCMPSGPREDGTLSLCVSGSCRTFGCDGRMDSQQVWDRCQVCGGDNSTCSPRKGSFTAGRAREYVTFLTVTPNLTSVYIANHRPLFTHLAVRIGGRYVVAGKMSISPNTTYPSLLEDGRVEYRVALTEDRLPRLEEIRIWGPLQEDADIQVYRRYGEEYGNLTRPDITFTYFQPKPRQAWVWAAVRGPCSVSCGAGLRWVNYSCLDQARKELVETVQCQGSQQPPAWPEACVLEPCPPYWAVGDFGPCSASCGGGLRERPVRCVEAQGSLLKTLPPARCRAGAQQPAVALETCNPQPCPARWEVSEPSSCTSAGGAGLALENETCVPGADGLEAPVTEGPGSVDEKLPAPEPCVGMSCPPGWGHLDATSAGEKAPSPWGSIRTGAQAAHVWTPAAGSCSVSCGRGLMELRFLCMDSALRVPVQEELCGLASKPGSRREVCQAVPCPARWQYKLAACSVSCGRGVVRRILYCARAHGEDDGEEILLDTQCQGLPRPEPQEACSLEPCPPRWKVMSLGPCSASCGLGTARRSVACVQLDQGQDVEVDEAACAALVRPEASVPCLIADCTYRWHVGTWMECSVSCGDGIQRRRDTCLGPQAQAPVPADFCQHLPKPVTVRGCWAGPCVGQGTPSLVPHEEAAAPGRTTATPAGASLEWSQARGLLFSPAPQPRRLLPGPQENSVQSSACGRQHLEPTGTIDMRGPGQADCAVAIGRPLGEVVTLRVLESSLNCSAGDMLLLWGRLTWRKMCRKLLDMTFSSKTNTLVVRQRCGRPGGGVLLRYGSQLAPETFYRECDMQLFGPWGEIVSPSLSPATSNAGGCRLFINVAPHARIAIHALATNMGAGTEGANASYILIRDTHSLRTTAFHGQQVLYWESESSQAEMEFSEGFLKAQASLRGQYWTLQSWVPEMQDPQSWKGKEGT
Description: The procedure in this example was performed substantially as described in Kokame, K., Y. Nobe, Y. Kokubo, A. Okayama, and T. Miyata. 2005. FRETS-VWF73, a first fluorogenic substrate for ADAMTS13 assay. Br. J. Haematol. 129:93-100, but using SEQ ID NO: 1 in place of the 73 amino acid substrate described therein. The FRETS-VWF73 substrate solution was dissolved in 25% dimethyl sulphoxide/water to prepare the 100 microM stock solution. The GTI FRET4 SEQ ID NO: 1 was dissolved in 100% DMSO. Both substrates were diluted to equal concentrations using ATS-13 substrate buffer (Gen-Probe GT1 Diagnostics, Inc., U.S.A., Cat#ATS-13).
Plasma samples were diluted according to the ATS-13 Direction Insert using ATS-13 specimen diluent (Gen-Probe GTI Diagnostics, Inc., U.S.A., Cat# ATS-13). The diluted plasma samples were mixed with the diluted substrate and the fluorescence was read at 0, 5, 10, 15, 20, 30, 45 minutes using a Biotek FLX800 at the appropriate excitation and emission wavelengths for each substrate.
The fluorophore-quencher pair in the SEQ ID NO: 1 polypeptide substrate is FAM-5/TQ 2^Tm (Ex 485±20; Em 528±20; AAT Bioquest, Inc. Sunnyvale, Calif. U.S.A.). The fluorophore and quencher pair of FRETS-VWF73 (Nma/Dnp) described in Kokame has been substituted with FAM-5 and TQ_2 respectively in GTI_FRET4 SEQ ID NO: 1. Furthermore, in the SEQ ID NO: 1 polypeptide the position of the fluorophore (FAM-5) and quencher (TQ_2) has been swapped relative to the position of the fluorophore and quencher of the FRETS-VWF73 construct. Therefore, for GTI_FRET4 SEQ ID NO: 1, attachment of the fluorophore (FAM-5) occurs by substituting asparagine with cystine at position 15. The quencher (TQ_2) was attached by substituting glutamine with lysine at position 4 (FIG. 2 and Table 4).
For this experiment, substrate concentration and fluorescence reader settings determined on the previous experiment are used. The specimens tested (listed in Table 3), include a panel of proficiency samples prepared for use with ATS-13 (Gen-Probe GTI Diagnostics, Inc., U.S.A., Cat# ATS-13) which included samples with normal or deficient ADAMTS13 activity levels. In addition, six Factor Assay ConTrol plasma were used (2 FACT, 2 A-FACT and 2 B-FACT, from George King Biomedical Inc., Kansas, USA). The assays for the SEQ ID NO: 1 substrate and for the prior art FRETS-VWF73 assay were performed generally as according to the procedure described in Example 1. Substrate is prepared according to the conditions used for initial testing of the substrate, which prepared the molar amount of SEQ ID NO: 1 polypeptide substrate used in the assay to be equivalent to the molar amount of FRETS-VWF73 used in the prior art. The […] assays were read at 0, 5, 10, 15, 20, 30, 45 minutes.
Testing of substrate for cleavability by ADAMTS13 is determined as is generally described in Example 1. […]

Question: Which “solubility in water compared with substrate buffer” value ([1]; pellet size after centrifugation) does the source give for “DREKAPNLVYMVTGCPASDEIKRLPGDIIGWPNAPILIQDFETLPREAPDLVLQR [GTI_FRET5]” here?
Answer: less soluble in water than in the buffer

Question: What about the “solubility in the working solution as prepared” value ([1]; substrate buffer, centrifuged ~12,000 g about 2 minutes) of the same sequence?
Answer: not completely soluble

Question: For “DREQAPNLVYMVTGNPASDEIKRLPGDIQVVPIGVGPNANVOELERIGWPNAPILIQDFLTLPREAPDLVLQR [FRETS-VWF73, reference compound]”, which “reaction time in the ADAMTS13 assay” value [2] is on record?
Answer: 30 min

Question: What about the “trend line of the calibration curve” value [2] of the same sequence?
Answer: polynomial

Question: What about the “difference between Calibrator A and E, dynamic range” value ([2]; Example 2, at 30 minutes) of the same sequence?
Answer: 2500 RFU

Question: What about the “Assigned/Expected % Normal ADAMTS13 Activity Values Based on FRETS-VWF73 Substrate” value ([2]; sample Calibrator A) of the same sequence?
Answer: 0 % Normal

Question: And the “Assigned/Expected % Normal ADAMTS13 Activity Values Based on FRETS-VWF73 Substrate” value ([2]; sample Calibrator B)?
Answer: 9 % Normal

Question: What about the “Assigned/Expected % Normal ADAMTS13 Activity Values Based on FRETS-VWF73 Substrate” value ([2]; sample Calibrator C) of the same sequence?
Answer: 34 % Normal

Question: And the “Assigned/Expected % Normal ADAMTS13 Activity Values Based on FRETS-VWF73 Substrate” value ([2]; sample Calibrator D)?
Answer: 55 % Normal

Question: And the “Assigned/Expected % Normal ADAMTS13 Activity Values Based on FRETS-VWF73 Substrate” value ([2]; sample Calibrator E)?
Answer: 102 % Normal

Question: And the “Assigned/Expected % Normal ADAMTS13 Activity Values Based on FRETS-VWF73 Substrate” value ([2]; sample MON110707)?
Answer: ~90-100 % Normal

Question: What about the “Assigned/Expected % Normal ADAMTS13 Activity Values Based on FRETS-VWF73 Substrate” value ([2]; sample Positive Control High) of the same sequence?
Answer: 36-54 % Normal

Question: What about the “Assigned/Expected % Normal ADAMTS13 Activity Values Based on FRETS-VWF73 Substrate” value ([2]; sample Positive Control Low) of the same sequence?
Answer: 6-17 % Normal

Question: What about the “Assigned/Expected % Normal ADAMTS13 Activity Values Based on FRETS-VWF73 Substrate” value ([2]; sample UAMS041609) of the same sequence?
Answer: ~35 % Normal

Question: And the “Assigned/Expected % Normal ADAMTS13 Activity Values Based on FRETS-VWF73 Substrate” value ([2]; sample VF)?
Answer: ~20 % Normal
